In patent US6037332A, “Method of urinary bladder instillation” (Emory University, priority 1997, dated 2000):

Tests used:
[1] = test system: MNU induced bladder tumors; settings: intravesical, Fisher 344 rats; Graham et al. 1995; cited from earlier work
T24 cells = assay: Proliferation of human transitional cell carcinoma cultures (crystal violet, A540 ratio day one/day eight); format: cell-based; settings: 10 mM dextran sulfate; day eight; p<0.0001
Protocol: Method: Cultures of two urothelial carcinoma cell lines, HT 1376 and T24 were obtained from the American Type Culture Collection and propagated in Dulbecco's Modified Eagles Medium (DMEM) supplemented with 10% fetal bovine serum (FBS). The HT1376 and T24 cells were plated into 96 well polystyrene trays in 0.1 ml of medium at densities of 5000 and 2500 cells/wells respectively. After overnight incubation, medium was replaced with DMEM containing various FBS and dextran sulfate concentrations. Each FBS and dextran sulfate concentration was tested in quadruplicated wells. On day eight the cells were fixed with glutaraldehyde, stained with 0.1% crystal violet and absorbance at 540 nm was quantitated in a (Bio-Rad) microplate spectrophotometer.
Results: The ratio of A540 values in day one and day eight was used to indicate cell proliferation.

[2] = test system: MNU-induced rat bladder transitional cell carcinoma
Protocol: (1972) and modified by Steinberg, et al. (1990). Animals: Four to five week old female Fisher 344 rats (avg. Wt. 200 g) were used in all cohorts on this trial. All animals received 5 mg/200 g body weight intraperitoneal gentamicin (50 mg/ml) as antibacterial prophylaxis one hour prior to each bladder catheterization. MNU dose and schedule: 100 mg of MNU (Sigma, St. Louis, Mo.) were dissolved in 10 ml of sodium acetate (CH3 COONa), pH of a solution=6.5. Five mg/200 g body weight of this solution (0.5 ml) was instilled intravesically via a 22-gauge teflon angiocatheter under a continuous flow hood within 45 minutes of preparing the MNU solution every other week for a total of 4 doses (8 weeks). […] (Mol. Wt. 8000 Da.-Sigma, St. Louis, Mo.) Beginning at week four, 20 of the animals received intravesical dextran sulfate, 10 mg/200 g body weight twice a week for four weeks. The remaining 20 animals received saline on the same schedule. Tissue Preparations: The urinary bladder were excised, filled and fixed with 10% neutral buffered formalin, and then embedded in paraffin. The bladders were sectioned every 2 mm and 5-micron sections were stained with hematoxylin and eosin.

[3] = test system: epidermal growth factor (EGF) binding to T24 cells; assay: 125I-EGF growth factor receptor binding to T24 cells; parameters: species or system human
Protocol: Method: Growth factor receptor binding studies were performed using T24 high grade human bladder tumor cell line. Cells were incubated with […] ^125 I-Insulin like growth factor-1 (^125 I-IGF-1) or ^125 I-epidermal growth factor (^125 I-EGF) and varying concentration of unlabeled growth factor or dextran sulfate in 1 ml of binding assay buffer. After incubation at 4° C. for 10 to 12 hours, the assay buffer was removed and the cultures washed three times. The cells and receptor-bound growth factors were then solubilized in 1 ml of […] before being quantitated in a gamma radiation counter.

[4] = test system: human urinary bladder carcinoma cells; settings: Sorimachi et al. 1992; cited from earlier work

Compound	in-vivo action on MNU induced bladder tumors [1]	T24 cell proliferation inhibition (T24 cells)	prevention of development of transitional cell carcinoma of the bladder ([2]; intravesical, 10 mg/200 g body weight twice a week for four weeks, from week four)	side effects or histopathologic changes in urinary bladders ([2]; rat, in vivo)	EGF binding ([3]; dextran sulfate 10 mM)	EGF binding ([3]; dextran sulfate 1-2 mM)	inhibitory effect on growth of human urinary bladder carcinoma cells in culture [4]
Cc1ccc(C(=O)Nc2ccc(S(=O)(=O)O)c3cc(S(=O)(=O)O)cc(S(=O)(=O)O)c23)cc1NC(=O)c1cccc(NC(=O)Nc2cccc(C(=O)Nc3cc(C(=O)Nc4ccc(S(=O)(=O)O)c5cc(S(=O)(=O)O)cc(S(=O)(=O)O)c45)ccc3C)c2)c1 [Suramin]	intravesical inhibition of MNU induced bladder tumors						
dextran sulfate		completely inhibited	effectively prevents the development of transitional cell carcinoma of the bladder	did not cause any significant side effects or histopathologic changes	115 % of control	80 % of control binding	failed to observe an inhibitory effect
